In US5594024A, “Centrally actig substituted phenylazacycloalkanes” (priority 1995, dated 1997):
Read-outs that look alike come from different tables or passages of the source.

Columns and labels:
5-HT1A = molecular target: T1, 5-HT1A (Rattus norvegicus, UniProt P19327); assay: 5-HT1A radioligand binding ([3H]-8-OH-DPAT); parameters: species or system rat (male Sprague-Dawley); conditions: [3H]-8-OH-DPAT, rat cortex; read-out: in vitro binding IC50, 5HT1A
T1 construct: the whole brain with the exception of the brainstem and cerebellum was rapidly removed; from tissue
T1 sequence (P19327 1-422): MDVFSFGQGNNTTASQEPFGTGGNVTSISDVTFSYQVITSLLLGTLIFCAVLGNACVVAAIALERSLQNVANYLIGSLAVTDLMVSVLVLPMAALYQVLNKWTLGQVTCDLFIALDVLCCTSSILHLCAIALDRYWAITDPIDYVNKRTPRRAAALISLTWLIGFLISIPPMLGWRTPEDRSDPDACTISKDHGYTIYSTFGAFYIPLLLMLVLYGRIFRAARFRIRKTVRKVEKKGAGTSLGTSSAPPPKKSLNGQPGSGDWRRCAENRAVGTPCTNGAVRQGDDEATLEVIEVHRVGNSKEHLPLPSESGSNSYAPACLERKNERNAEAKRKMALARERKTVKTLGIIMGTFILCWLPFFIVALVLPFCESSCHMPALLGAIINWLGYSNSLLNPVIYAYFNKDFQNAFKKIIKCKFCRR
Experimental: ^b Serotonin 5HT1A ([^3 H]-8OH-DPAT, agonist) rat cortex.
5-HT1A radioligand binding. Male Sprague-Dawley rats (160-225 g) were killed by decapitation and the whole brain with the exception of the brainstem and cerebellum was rapidly removed, weighed and chilled in ice-cold 0.9% NaCl. Each brain was homogenized (Ultra-Turrax, 20 s) in 10 mL ice-cold 50 mM Tris buffer (pH 8.0 at 25° C.) containing 120 mM NaCl, 4 mM CaCl2 and 4 mM MgCl2 and centrifuged at 20,000 g's at 4° C. for 10 minutes. Pellets were resuspended in 10 mL fresh buffer and preincubated for 10 minutes in a 37° C. waterbath and then recentrifuged. Final pellets were homogenized in 100 volumes (w/v) of Tris buffer (as described above) containing 10 μM pargyline. The incubation tubes were kept on ice in triplicates and received 100 μL drug solution in water (or water for total binding) and 1000 μL membrane suspension (corresponds to 10 mg original tissue). The binding experiment was initiated by addition of 100 μL of (3H)-8-OH-DPAT (specific activity 143-158 Ci/mmol) in ascorbic acid (the final incubation concentration was 1 nM (3H)-8-OH-DPAT in 0.1% ascorbic acid). After incubation for 15 minutes at 37° C. the reaction was terminated by separation of the free radioligand from bound by rapid vacuum filtration using a cell harvester equipment (O. M. Teknik, Denmark). The tubes were rinsed with 4 mL and the filters (Whatman GF/F 25 mm) were washed twice with 4 mL ice-cold 0.9% NaCl.
The radioactivity of the filters was measured in a liquid scintillation counter (efficiency 41%) in 5 mL Picofluor®. Specific binding (70-75% of total binding) was defined as the radioactivity displaced by 10 μM 5-HT. IC50 values were calculated by semi-log plot and linear regression analysis.

D2 receptors = molecular target: T2, D2 receptors (Rattus norvegicus, UniProt P61169); assay: D2 antagonist binding ([3H]-spiperone), rat striatum
T2 construct: Preparation of rat striatal membranes for (3H)-spiperone; from tissue; host or cells: rat striatum (striatal membranes)
T2 sequence (P61169 whole entry): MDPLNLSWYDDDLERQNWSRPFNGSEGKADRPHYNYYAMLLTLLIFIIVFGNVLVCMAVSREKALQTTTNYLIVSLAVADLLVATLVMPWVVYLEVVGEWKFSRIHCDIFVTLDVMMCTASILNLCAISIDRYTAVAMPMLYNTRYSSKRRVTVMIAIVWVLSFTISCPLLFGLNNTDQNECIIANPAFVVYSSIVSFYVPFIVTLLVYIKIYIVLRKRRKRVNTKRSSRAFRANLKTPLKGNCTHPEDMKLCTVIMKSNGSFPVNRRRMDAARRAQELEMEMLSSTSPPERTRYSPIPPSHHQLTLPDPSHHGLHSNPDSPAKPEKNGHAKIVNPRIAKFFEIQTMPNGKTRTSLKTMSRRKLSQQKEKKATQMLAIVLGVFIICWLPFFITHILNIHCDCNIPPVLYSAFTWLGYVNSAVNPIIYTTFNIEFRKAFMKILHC
Experimental: D2 antagonist binding. Preparation of rat striatal membranes for (3H)-spiperone (specific activity 21-24 Ci/mmol) binding was carried out in a similar manner as described for D1-binding, Hyttel et al., J. Neural. Transm., 68, 171 (1987).
IC50 values were calculated by semi-log plot and linear regression analysis.

DA receptor [1] = assay: DA metabolism (DOPAC, HVA levels) in habituated rats; type: in vivo, rat (male Sprague-Dawley); conditions: Rattus norvegicus, 1 h
Experimental: (§1) Footnotes Table 3. The rats were habituated to the motility meters 60 min
The rats were immediately killed after the activity session, striata
and limbic levels of DOPAC and 5HIAA were measured by means of HPLCEC. *p
In the experiments with habituated rats no NSD was administered and the animals were killed one hour after drug administration. […] The levels were expressed as % of controls (DOPAC and 5-HIAA see Table 3). The in vivo brain microdialysis experiments were performed in conscious rats as described by Waters et al., Eur. J. Pharm., 187, 425-34 (1990).
(§2) Injection volumes were 5 mL/kg.
After the activity session the rats were killed and the brain levels of HVA and DOPAC were measured (data are expressed as means ±SEM).

habituated rats = assay: Locomotor activity and behavior in habituated rats; type: in vivo, rat (male Sprague-Dawley); conditions: 100 μmol/kg sc, habituated rats; for response vs control in vivo at 100 µmol/kg: Rattus norvegicus, 1 h, 60 min, read-out: Motor Activity
Experimental: as §1
prior to the activity session.
as §2
Locomotor activity was measured in rats which were habituated 60 minutes to the activity meters before drug injection. The activity was measured for the subsequent 60 minutes and expressed as % of controls (means ±SEM, n=4).

non-pretreated rats = assay: Locomotor activity and gross behavior in non-habituated (non-pretreated) rats; conditions: non-pretreated rats; for Motor Act.: 30 min
5-HT receptor = assay: 5-HTP accumulation (5-HT synthesis rate) in non-pretreated rats after NSD 1015; type: in vivo, rat (male Sprague-Dawley)
Experimental: observations are commented to the right. After the session the rats were
accumulation in the NErich cortical regions and 5HTP in the limbic
as §2

DA receptor [2] = assay: DOPA accumulation (DA synthesis rate) in non-pretreated rats after NSD 1015
Experimental: injected with NSD 1015 (100 mg/kg, i.p.) and then killed 30 min later.
In-vivo determination of rat brain monoamine metabolites and tyrosine and tryptophan hydroxylation (biochemically monitored DA and 5-HT receptor agonist or antagonist activity).
The compounds under evaluation were tested biochemically for central DA and 5-HT receptor (pre- and/or postsynaptic) stimulating and/or blocking activity. The concept of this biochemical screening method is that a DA or 5-HT receptor agonist will stimulate the receptor and through regulatory negative feed-back systems induce a decline in tyrosine or tryptophan hydroxylating activity, respectively, and a subsequent reduction in the synthesis rate of DA and 5-HT in the presynaptic neuron. […] The biochemical experiments and the determinations of Dopa and 5-HTP by means of HPLC with electrochemical detection were performed. The antagonistic effects were seen as increases in the synthesis rate (n=4), as a result of the positive feed-back upregulation of synthesis. The effects on Dopa and 5-HTP accumulation are expressed as % of controls, which were: DOPA limbic system=447±23 ng/g and DOPA striatum=1045±47ng/g, 5-HTP limbic region 241±2 ng/g (Table 2).
Animals used in the biochemical and motor activity experiments were male rats of the Sprague-Dawley strain (ALAB, Sollentuna, Sweden), weighing 200-300 g. The rats were kept 5 per cage with free access to water and food (except for the starved animals for the experiments with per oral administration, who were only allowed water the last 18 hours before testing), at least one week from arrival until used in the experiments.
All substances to be tested were dissolved in saline immediately before use, occasionally with the addition of a few drops of glacial acetic acid and/or moderate heating in order to obtain complete dissolution. Injection volumes were 5 mL/kg.
Analysis of variance (ANOVA) followed by Fischer's test was used for the statistical calculations. P values less than 0.05 were regarded statistically significant.
DOPA accumulation (DA synthesis rate) in non-pretreated rats (Table 2). After the locomotor activity session (see Table 2, above) the rats were injected with the decarboxylase inhibitor NSD 1015 (100 mg/kg, sc) and killed 30 minutes later. The DOPA accumulation in the DA -rich limbic and striatal and the NE-rich cortical (mainly hemispheres) brain areas were expressed as % of saline treated controls.
DOPA accumulation, time course after s.c. and p.o. administration (Table 2). […] NSD 1015 (100 mg/kg, sc) was injected 30 minutes before death. The data are expressed as % of saline treated controls.

[3] = read-out: in vitro binding IC50, D2 -spip, [3H]-spiperone, rat striatum
[4] = [3H]-spiperone, rat striatum, read-out: in vitro binding IC50, D2 -spip
[5] = 100 μmol/kg sc, habituated rats, read-out: DOPAC limbic
[6] = 100 μmol/kg sc, habituated rats, read-out: DOPAC striatum

CCCCN1CCC[C@@H](c2cccc(C#N)c2)C1 [Compound S-36, S-3-(3-Cyanophenyl-N-n-butyl)piperidine]
IC50 (5-HT1A): 5.6 µM | IC50 (D2 receptors; [3]): 3.7 µM

C=CCN1CCC[C@@H](c2cccc(C#N)c2)C1 [Compound S-37, S-3-(3-Cyanophenyl-N-allyl)piperidine]
IC50 (5-HT1A): 12 µM | IC50 (D2 receptors; [3]): 8.2 µM | response vs control in vivo at 100 µmol/kg (DA receptor [1]; sc, read-out: DOPAC limbic): 205 ± 17%

N#Cc1cccc([C@@H]2CCCN(CC3CC3)C2)c1 [Compound S-38, S-3-(3-Cyanophenyl-N-cyclopropylmethyl)piperidine]
IC50 (5-HT1A): 7.9 µM | response vs control in vivo at 100 µmol/kg (DA receptor [1]; sc, read-out: DOPAC limbic): 221 ± 8%

N#Cc1cccc([C@@H]2CCCN(CCc3ccccc3)C2)c1 [Compound S-39, S-3-((3-Cyanophenyl)-N-(2-phenylethyl))piperidine]
IC50 (5-HT1A): 0.15 µM | IC50 (D2 receptors; [4]): 0.63 µM | response vs control in vivo at 100 µmol/kg (DA receptor [1]; [5]): 169 ± 16% | response vs control in vivo at 100 µmol/kg (DA receptor [1]; [6]): 231 ± 14% | Behavioral observations (habituated rats): Activation | response vs control in vivo at 100 µmol/kg (habituated rats): 511 ± 69%

N#Cc1cccc([C@@H]2CCCN(CCc3cccs3)C2)c1 [Compound S-40, S-3-((3-Cyanophenyl)-N-(2-thiopheneethyl))piperidine]
IC50 (5-HT1A): 0.4 µM | IC50 (D2 receptors; [4]): 0.89 µM | response vs control in vivo at 100 µmol/kg (DA receptor [1]; [5]): 149 ± 17% | response vs control in vivo at 100 µmol/kg (DA receptor [1]; [6]): 201 ± 4% | Behavioral observations (habituated rats): Activation | response vs control in vivo at 100 µmol/kg (habituated rats): 500 ± 92%

CN1CCC[C@@H](c2cccc(C#N)c2)C1 [S-(+)-32, S-(+)-3-(3-Cyanophenyl-N-methyl)piperidine]
Gross Behavioral Observations (non-pretreated rats; 25 sc): No change | Motor Act. (non-pretreated rats; 25 sc): 128 ± 27 % of saline controls | Motor Act. (non-pretreated rats; 100 sc): 79 ± 2 % of saline controls | IC50 (5-HT1A): 14 µM | IC50 (D2 receptors; [4]): 50 µM | 5-HTP acc Limbic Region (5-HT receptor; 25 sc): 98 ± 7 % of saline controls | 5-HTP acc Limbic Region (5-HT receptor; 100 sc): 78 ± 2 % of saline controls | DOPA acc Cortex (DA receptor [2]; 25 sc): 91 ± 5 % of saline controls | DOPA acc Stratium (DA receptor [2]; 25 sc): 132 ± 9 % of saline controls | DOPA acc Cortex (DA receptor [2]; 100 sc): 109 ± 12 % of saline controls | DOPA acc Stratium (DA receptor [2]; 100 sc): 215 ± 6 % of saline controls | response vs control in vivo at 100 µmol/kg (DA receptor [1]; sc, read-out: DOPAC limbic): 110 ± 6% | response vs control in vivo at 100 µmol/kg (DA receptor [1]; sc, read-out: DOPAC striatum): 120 ± 5%

CCCN1CCC[C@@H](c2cccc(C(N)=O)c2)C1 [S-(-)-29, S-(-)-3-(3-Carbamoylphenyl-N-n-propyl)piperidine]
IC50 (5-HT1A): 6.3 µM | IC50 (D2 receptors; [4]): 75 µM

CCN1CCC[C@@H](c2cccc(C#N)c2)C1 [S-(-)-33, S-(-)-3-(3-Cyanophenyl-N-ethyl)piperidine]
Gross Behavioral Observations (non-pretreated rats; 25 sc): Weak stimul. | Motor Act. (non-pretreated rats; 25 sc): 157 ± 7 % of saline controls | Gross Behavioral Observations (non-pretreated rats; 100 sc): No change | Motor Act. (non-pretreated rats; 100 sc): 113 ± 7 % of saline controls | IC50 (5-HT1A): 22 µM | IC50 (D2 receptors): 14 µM | 5-HTP acc Limbic Region (5-HT receptor; 25 sc): 83 ± 3 % of saline controls | 5-HTP acc Limbic Region (5-HT receptor; 100 sc): 77 ± 3 % of saline controls | DOPA acc Cortex (DA receptor [2]; 25 sc): 108 ± 7 % of saline controls | DOPA acc Stratium (DA receptor [2]; 25 sc): 282 ± 11 % of saline controls | DOPA acc Cortex (DA receptor [2]; 100 sc): 137 ± 7 % of saline controls | DOPA acc Stratium (DA receptor [2]; 100 sc): 318 ± 19 % of saline controls | response vs control in vivo at 100 µmol/kg (DA receptor [1]; sc, read-out: DOPAC limbic): 153 ± 15% | response vs control in vivo at 100 µmol/kg (DA receptor [1]; sc, read-out: DOPAC striatum): 167 ± 8% | Behavioral observations (habituated rats): Activation | response vs control in vivo at 100 µmol/kg (habituated rats): 431 ± 80%

CCCN1CCC[C@@H](c2cccc(OC)c2)C1 [S-i, S-3-(3-Methoxyphenyl-N-n-propyl)piperidine]
IC50 (5-HT1A): 4.5 µM | IC50 (D2 receptors; [4]): 21 µM
